Here are results for one compound from EP4424303A1, “LENVATINIB COMPOSITION WITH IMPROVED BIOAVAILABILITY” (STADA ARZNEIMITTEL AG, priority 2023, dated 2024).

Molecules are shown by their SMILES. Counter-ions that a name gives are not always drawn.

This series in a line: Saturation (equilibrium) solubility by shake-flask technique. In kind it is physicochemical. Conditions: thermodynamic from solid, 37 °C ± 1 °C. Here is the method: The equilibrium solubility of Lenvatinib mesylate in different dissolution media at 37 °C ± 1 °C was measured by shake-flask technique. The dissolution media were prepared according to USP. The pH for each test solution was measured after the addition of the drug substance and at the end of the equilibrium solubility study.
1. Table 1: saturation solubility of Lenvatinib mesylate depending on pH

Regarding `COc1cc2nccc(Oc3ccc(NC(=O)NC4CC4)c(Cl)c3)c2cc1C(N)=O` [Lenvatinib mesylate, 4-[3-chloro-4-(cyclopropylaminocarbonyl)aminophenoxy]-7-methoxy-6-quinolinecarboxamide], the solubility (usually the dissolved amount per volume that the medium holds) was 2620 µg/mL (USP dissolution medium pH 2.0, simulated gastric fluid, pH 2.0, Initial pH 2.0, Final pH 1.88); 13 µg/mL (USP dissolution medium pH 4.5, aqueous buffer, pH 4.5, Initial pH 4.52, Final pH 4.38); 3 µg/mL (USP dissolution medium pH 5.5, aqueous buffer, pH 5.5, Initial pH 5.49, Final pH 5.25); 1 µg/mL (USP dissolution medium pH 6.8, aqueous buffer, pH 6.8, Initial pH 6.82, Final pH 6.68); 1830 µg/mL (simulated gastric fluid, 0.1N HCl, Initial pH 1.1, Final pH 1.23).
